The source of these data is US9046527B2, “Mutated SUMO isoforms and uses thereof” (Université De Montréal, priority 2009, dated 2015).

For experiment [1], the system named is Ubiquitin-conjugating enzyme E2. The experiment is described as follows: In vitro SUMOylation assay. The experiment is classed as biochemical. The note with it: Coomassie or silver stained gel. As to the method: For in vitro SUMOylation, the reaction mixture comprised 20 μL of reaction buffer (20 mM NH4CO3 pH 9, 20 mM NaCl, 0.5 mM DTT), 1 μg recombinant and purified SUMO proteins, 0.5 μg of substrate E2-25K (Boston Biochem) or RanGAP fragment (Boston Biochem), 0.1 μg SASE1/SAE2 heterodimer (Boston Biochem), 0.5 μg conjugating enzyme hUbC9 (Boston Biochem) with or without Mg-ATP solution (Boston Biochem) at 5 mM. The reaction mixture was incubated at 37° C. for 1 hour and subsequently stopped by adding an equal volume of Laemmli Buffer. The reaction mixture was analysed separated by SDS-PAGE and visualized using Western Blotting (2 μl), coomassie staining (10 μL) or silver staining (5 μL) as shown in FIGS. 7 and 8.
Protein extracts were subjected to electrophoresis through a 4-12% NuPAGE Bis-Tris polyacrylamide gel (Invitrogen, Burlington, ON, Canada) under denaturing conditions. After electrophoresis, proteins were fixed within the polyacrylamide gel by incubating the entire gel in 5% (v/v) acetic acid in a 1:1 (v/v) water:ethanol solution. For silver staining, the gel was first sensitized for 1 minute using an aqueous solution of 0.02% sodium thiosulfate (Na2S2O3) unless otherwise indicated. Staining was performed by incubating the gel in 0.1% (v/v) silver nitrate (AgNO3) in water for 25 minutes at 4° C. Finally, the gel was developed in 3% (w/v) sodium carbonate (Na2CO3, pH: 11.4) containing 0.05% formalin (v/v) in water. The staining was then stopped with a solution of 5% (v/v) acetic acid in water. For Coomassie blue staining, proteins were fixed after gel separation and stained in a one-step procedure by incubating the entire gel in 0.1% (w/v) Coomassie Brilliant Blue R-250 in a 1:8:11 (v/v/v) acetic acid:methanol:water mixture for 1 hour at room temperature (RT). The gel was finally rinsed three times in a 1:4:5 (v/v/v) acetic acid:methanol:water solution at RT to visualize protein bands.

Experiment [2] addresses T1, PML (Homo sapiens, UniProt P29590).
T1 construct: tryptic peptides from NTA-purified His-SUMO3 proteins of HEK293 cells treated or not with As2O3; endogenous in cells; host or cells: HEK293 cells expressing the His-SUMO3 mutant
T1 sequence (P29590 1-882): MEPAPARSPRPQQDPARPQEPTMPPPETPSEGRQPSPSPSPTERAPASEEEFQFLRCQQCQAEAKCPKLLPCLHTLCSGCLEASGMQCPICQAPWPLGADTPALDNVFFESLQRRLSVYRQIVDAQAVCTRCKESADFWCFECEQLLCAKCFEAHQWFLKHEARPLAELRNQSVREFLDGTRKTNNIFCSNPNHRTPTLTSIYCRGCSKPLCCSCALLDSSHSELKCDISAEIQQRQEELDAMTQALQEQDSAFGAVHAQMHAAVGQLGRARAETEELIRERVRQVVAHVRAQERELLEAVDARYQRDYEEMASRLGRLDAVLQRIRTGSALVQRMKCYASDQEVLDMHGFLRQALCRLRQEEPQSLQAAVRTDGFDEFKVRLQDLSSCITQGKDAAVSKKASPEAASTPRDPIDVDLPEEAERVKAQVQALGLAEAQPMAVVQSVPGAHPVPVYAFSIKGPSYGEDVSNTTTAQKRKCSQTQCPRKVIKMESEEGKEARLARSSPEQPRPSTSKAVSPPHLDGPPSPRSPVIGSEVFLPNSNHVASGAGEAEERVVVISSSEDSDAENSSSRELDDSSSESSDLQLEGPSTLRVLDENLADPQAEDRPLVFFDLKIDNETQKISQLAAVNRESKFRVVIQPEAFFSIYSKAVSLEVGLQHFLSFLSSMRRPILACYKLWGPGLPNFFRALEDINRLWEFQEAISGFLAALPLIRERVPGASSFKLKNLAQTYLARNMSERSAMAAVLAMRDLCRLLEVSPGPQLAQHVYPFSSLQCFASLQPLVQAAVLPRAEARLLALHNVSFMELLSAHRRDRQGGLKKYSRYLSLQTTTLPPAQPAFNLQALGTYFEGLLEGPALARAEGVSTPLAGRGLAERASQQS
The experiment is described as follows: LC-MS/MS of tryptic peptides from NTA-purified His-SUMO3 proteins of HEK293 cells treated or not with As2O3. The experiment is classed as cell-based. How it is done: FIG. 21 is a scatter plot of tryptic peptides from NTA-purified His-SUMO3 proteins of HEK293 cells treated or not with As2O3.
(§1) SUMOylated proteins were purified from 10^9 cells of stably expressing His6-SUMO1 mutant; half of cell culture was treated with 1 μM As2O3 during 4 hours. Cells were harvested, washed with PBS and lysed with 15 mL of Buffer A (6 M guanidinium-HCl, 0.1 M NaH2PO4, 0.01 M Tris-HCl, pH 8.0, 10 mM-mercaptoethanol). The lysate was sonicated, centrifuged at 16 000 g for 30 minutes and filtered on 0.45 μm and mixed with 500 μL Ni^2+-NTA agarose beads (Invitrogen) pre-washed with lysis buffer and incubated overnight at room temperature on rotating wheel. The NTA beads were successively washed with the following solutions: buffer A, buffer B (8 M Urea, 0.1 M NaH2PO4, 0.01 M Tris-HCl, pH 6.3, 10 mM-mercaptoethanol), buffer B plus 0.2% Triton X-100, twice with buffer B. His SUMO proteins were eluted from the NTA beads using 200 mM imidazole, 0.15 M Tris-HCl, pH 6.7, 5% Glycerol. An example of the enriched His6-SUMO1 mutant proteins is shown on FIG. 20 following SDS-PAGE separation and gel visualisation using silver staining and anti-His immonublot.
This scatter plot compares the abundance of more than 4500 peptide ions, of which approximately 45 correspond to SUMOylated tryptic peptides (blue circles). […]

Experiment [3] concerns PML-nuclear bodies in HEK293 human cells. The experiment is described as follows: Immunofluorescence microscopy: co-localization of PML-Yellow Fluorescence Protein with His6-SUMO to nuclear bodies. The experiment is classed as cell-based. The note with it: HEK293, incubation with 1 μM As2O3. From the text:
Immunofluorescence microscopy of HEK293 human cells showing co-localization of PML-Yellow Fluorescence Protein with His6 SUMO1 WT (top) and Q92R mutant (bottom) to nuclear bodies. […] DAPI staining (nucleus).
Immunofluorescence microscopy of HEK293 human cells showing co-localization of PML-Yellow Fluorescence Protein with His6-SUMO1 WT, His6-SUMO1 mutant, His6-SUMO2 WT, His6-SUMO2 mutant, His6-SUMO3 WT, and His6-SUMO3 mutant to nuclear bodies, DAPI staining (nucleus).
The functional activity of the wild type and SUMO mutants was also determined from immunofluorescence microscopy by monitoring the recruitment of the SUMOylated promyelocytic leukaemia (PML) substrate to nuclear bodies following treatment of HEK293 cells with As2O3 (FIG. 14). The visualization of all SUMO mutants using this immunofluorescence assay also confirmed the functional activity of all three SUMO isoforms (FIG. 15).

The subject of experiment [4] is protein SUMOylation. In words: NTA purification of His6-SUMO1 mutant proteins, silver-stained SDS-PAGE and immunoblot anti-His. The experiment is classed as cell-based, human. The conditions noted are these: cells stably expressing His6-SUMO1 mutant, stimulation with As2O3. How it is done: FIG. 20 illustrates gel electrophoresis separation of His6-SUMO1 mutant proteins following NTA purification. Silver-stained SDS-PAGE and immunoblot anti-His show an enrichment of His6-SUMO1 proteins as indicated from the trail of protein bands at the top of the gel.
as §1

The subject of experiment [5] is HA-RanGAP. In words: In vivo SUMOylation assay with transfected HA-RanGAP, immunoblot anti-HA. The experiment is classed as cell-based, human. How it is done:
FIG. 9 illustrates immunoblot of in vivo SUMOylation assay using transfected HA-RanGAP as protein substrate. Immunoblots are performed using an antibody that recognized the HA epitope. Immunoblots are presented for His6-SUMO1 (wild type, and mutant Q92R).
SUMO isoform mutants can also be co-transfected in mammalian cells with target protein substrates. For example, RanGAP1, a known SUMOylation target forms a tight complex in association with NUP358 and UBE2I/UBC9. The ubiquitin-conjugating enzyme E2 interacts with UBE2I favoring the conjugation of SUMO1 to RANGAP1, and subsequently stabilizes interactions of SUMOylated RANGAP1 with RANBP2/NUP358. The SUMO1/RANGAP1/UBC9/NUP358 complex associates with nuclear pore complexes (Joseph, J., Tan, S. H., Karpova, T. S., McNally, J. G., and Dasso, M. (2002). SUMO-1 targets RanGAP1 to kinetochores and mitotic spindles. The Journal of cell biology 156, 595-602; Swaminathan, S., Kiendl, F., Korner, R., Lupetti, R., Hengst, L., and Melchior, F. (2004). RanGAP1*SUMO1 is phosphorylated at the onset of mitosis and remains associated with RanBP2 upon NPC disassembly. The Journal of cell biology 164, 965-971). The SUMO isoform mutants are also functional and can be conjugated to RanGAP1 following transfection of these proteins in […] cells, as illustrated in FIG. 9. […]

On to “His6-SUMO2 Q88R: Substitution of Gln for Arg at position 88 in endogenous SUMO2 protein, N-terminal His6; SEQ ID NO: 8”, for which the “SUMOylated E2 band on stained gel” value in experiment [1] is “SUMOylated E2 is observed as the highest molecular weight band”. Take `[AsH3]` [As2O3]: in experiment [2] (HEK293, NTA-purified His-SUMO3 proteins, upon As2O3 treatment), the “abundance of PML peptides” value is “significant increased in abundance”. Further, in experiment [2] (HEK293 His-SUMO3 mutant, As2O3 treated vs not treated), the “increase in SUMOylation of K490 bearing PML peptide” value is given as 8 fold. Further, the “formation of PML-nuclear bodies” value in experiment [3] is given as “Increase formation of PML-nuclear bodies”. Further, the “protein SUMOylation (His6-SUMO1 protein bands)” value in experiment [4] is given as “Enhanced protein SUMOylation”. As for “His6-SUMO1 Q94R: recombinant His6-SUMO1 with mutation Q94R”, the “SUMOylated E2 band on stained gel” value in experiment [1] is given as “SUMOylated E2 is observed as the highest molecular weight band”. Consider “His6-SUMO1 E93R: recombinant His6-SUMO1 with mutation E93R”, for which the “SUMOylated E2 band on stained gel” value in experiment [1] is “SUMOylated E2 is observed as the highest molecular weight band”. In the case of “His6-SUMO1 Q92R: Substitution of Gln for Arg at position 92 in endogenous SUMO1 protein, N-terminal His6; SEQ ID NO: 4”, in experiment [5], the “SUMOylated HA-RanGAP band on immunoblot” value is on record as “SUMOylated HA-RanGAP is observed as the highest molecular weight band”. The “SUMOylated E2 band on stained gel” value in experiment [1] was “SUMOylated E2 is observed as the highest molecular weight band”.

B1: His6-SUMO3 Q92R/Q93N: Gln to Arg at position 87 and Gln to Asn at position 88 in endogenous SUMO3, N-terminal His6; SEQ ID NO: 12 (protein, listed as Homo sapiens)
chain: MAHHHHHHGGSMSEEKPKEGVKTENDHINLKVAGQDGSVVQFKIKRHTPLSKLMKAYCERQGLSMRQIRFRFDGQPINETDTPAQLEMEDEDTIDVFRNQTGG
modifications: N-terminal His6
For the molecule B1, the “SUMOylated E2 band on stained gel” value in experiment [1] is listed as “SUMOylated E2 is observed as the highest molecular weight band”.
